Assay results as given in patent publication US20250034165A1, “COMPOUND CONTAINING CYCLOALKYL OR HALOALKYL” (CHIA TAI TIANQING PHARMACEUTICAL GROUP CO., LTD., priority 2021, published 2025).

Legend:
[1] = system: BAF3-EGFR (L858R/T790M/C797S) cells; test: Inhibition of proliferation of BAF3-EGFR (L858R/T790M/C797S) cells, CCK-8; format: cell-based; details: Ba/F3 EGFR, 72 h, read-out: BAF3(EGFR T790M L858R C797S) cell inhibitory activity IC50
In short: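 BaF3 EGFR L858R/T790M/C797S cells seeded at 1.5×10^5 cells/mL in RPMI + 10% FBS, 37 °C, compound added after overnight, duplicates. Viability by CCK-8; % inhibition vs untreated and blank, IC50 by four-parameter fit.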

[2] = system: BAF3-EGFR (del19/T790M/C797S) cells; test: Inhibition of proliferation of BAF3-EGFR (Del19/T790M/C797S) cells, CCK-8; format: cell-based; details: Ba/F3 EGFR-Del19/T790M/C797S, 72 h, read-out: BAF3(EGFR T790M Del19 C797S) cell inhibitory activity IC50
In short: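 Cells seeded at 1.0×10^5 cells/mL in RPMI + 10% FBS, cultured overnight at 37° C, 5% CO2, then compound added in duplicate wells, with untreated cells as negative control. Inhibition rate calculated against negative-control and blank means. IC50 obtained from four-parameter fit of inhibition versus log concentration.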

[3] = system: PC-9 EGFR-Del19-T790M-C797S cells; test: Inhibition of proliferation of PC-9-EGFR (Del19 T790M C797S) cells, CCK-8; format: cell-based; details: 72 h, read-out: PC-9-EGFR (Del19 T790M C797S) cell inhibitory activity IC50
In short: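 Cells seeded at 2×10^4 cells/mL were treated 72 h with compound at 1000 nM-0.06 nM final, in replicate wells. CCK-8 absorbance at 450 nm after 2 h gave inhibition rate relative to negative control and blank. IC50 from four-parameter fit against log concentration.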

[4] = In vivo pharmacokinetics in ICR mice; details: mouse, plasma, PO, 10 mg/kg intragastric
In short: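 ICR mice (18–20 g, 9 per group, fasted 12 h) received 10 mg/kg of compound intragastrically. Orbital blood was taken from 0 min to 24 h and EDTA-K2 plasma was prepared. Plasma was precipitated with acetonitrile containing diazepam as internal standard and analysed by LC/MS/MS.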

NCI-H1975(L858R T790M) = test: Nude mouse subcutaneous xenograft tumor model of NCI-H1975 cells; format: in vivo, nude mice; details: once a day, 14 days
From the text: Evaluation on drug effect on nude mouse subcutaneous xenograft tumor model of NCI-H1975 cells: NCI-H1975 cells were inoculated subcutaneously in the right axilla of SPF-grade female nude mice (source: Jiangsu Huachuang Sino Pharmaceutical Technology Co., Ltd.) at 1×10^6 cells/mouse. When the mean tumor volume reached about 200 mm^3, the animals were grouped.
(§1) The day of grouping was defined as day 0, and intragastric administration was started on day 0 and performed once a day. The tumor volume was measured 2-3 times a week, meanwhile, the mice were weighed and the data were recorded; the general behavior of the mice was observed and recorded every day. After the experiment was completed, the tumors were removed, weighed, and photographed.
(§2) Tumor volume TV (mm^3)=½×(a×b^2),
(§3) Relative tumor volume RTV=TVt/TV0,
(§4) Relative tumor proliferation rate T/C (%)=(TRTV/CRTV)×100%,
(§5) Tumor growth inhibition rate TGI (%)=(1−TW/TW0)×100%;

[5] = system: PC9-EGFR (del19-T790M-C797S); test: Nude mouse subcutaneous xenograft tumor model of PC9-EGFR (del19-T790M-C797S) tumor mass; format: in vivo, nude mice
From the text: Evaluation on drug effect on nude mouse subcutaneous xenograft tumor model of PC9-EGFR (del19-T790M-C797S) tumor mass: PC9-EGFR (del19-T790M-C797S) cells were inoculated subcutaneously in the right axilla of SPF-grade female nude mice (source: Laboratory Animal Operation Department, Shanghai Institute for Biomedical and Pharmaceutical Technologies) at 1×10^7 cells/mouse for the F1 generation. The nude mouse tumor tissue of the F1 generation was taken out, and the necrotic tissue was removed. Then the rest of the tumor tissue was cut into tumor masses of about 1.5-2 mm and inoculated subcutaneously in the right axilla of the nude mice. When the mean tumor volume reached about 200 mm^3, the animals were grouped.
as §1, §2, §3, §4, §5

[6] = target: EGFR (d746-750 (d19)/T790M) (Homo sapiens (Human), UniProt P00533, DEL746-750/T790M); test: Inhibitory activity for EGFR (d746-750 (d19)/T790M) kinase; format: biochemical; details: ATP 5 μM
In short: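 Recombinant EGFR d746-750/T790M (0.003 ng/μL final) preincubated 30 min with compound (10 to 0.0024 nM, 4-fold steps), then 5 μM ATP and 0.1 μM ULight-poly GT added for 2 h at room temperature. EDTA stop, Eu-anti-phosphotyrosine TR-FRET read (665 nm); IC50 by four-parameter fit.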

[7] = target: EGFR (d746-750/T790M/C797S) (Homo sapiens (Human), UniProt P00533, C797S/DEL746-750/T790M); test: Inhibitory activity for EGFR (d746-750/T790M/C797S) kinase; format: biochemical; details: ATP 5 μM; read-out: EGFR(d19/T790M/C797S) (IC50)
In short: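 EGFR d746-750/T790M/C797S (0.03 ng/μL final) preincubated 30 min with compound (10 nM–0.0024 nM, 4-fold, 7 points). Reaction with 5 μM ATP and 0.1 μM ULight-poly GT, 2 h at room temperature; EDTA stop, Eu-anti-phosphotyrosine TR-FRET read at 665 nm, IC50 by four-parameter fit.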

[8] = In vitro stability in liver microsomes; format: in vitro ADME; details: Human liver microsome
Procedure: 300 μL of the final incubation system contains 30 μL of liver microsomes (protein concentration: 0.15 mg/mL), 30 μL of NADPH+MgCl2, 3 μL of the test compound (in acetonitrile), and 237 μL of PBS buffer (pH 7.4). The proportion of the organic solvent (acetonitrile) was 1%. Samples were prepared in duplicate of 0.3 mL for each species (e.g., human or mouse liver microsomes). Tubes each containing 270 μL of a mixed solution of substrate and enzyme […] were pre-incubated at 37° C. for 5 min. 30 μL of NADPH+MgCl2 was added and the mixture was mixed. 50 μL of the mixture was taken at 0 min, 15 min, 30 min, and 60 min, and 300 μL of glacial acetonitrile containing an internal standard was added to terminate the reaction.
50 μL of the incubated sample was added with 300 μL of glacial acetonitrile containing an internal standard (20 ng/mL diazepam) for precipitation. The mixture was vortexed for 5 min, and centrifuged (12,000 rpm, 4° C.) for 10 min. 75 μL of supernatant was taken and diluted with 75 μL of ultrapure water. After being homogeneously mixed, 0.5 μL of the resulting sample was injected for analysis.

[9] = 15 mpk*4 + 10 mpk*25 (i.g), 29 days

Sequence of EGFR (d746-750/T790M/C797S) (P00533 other isoform, or with tags, fused parts or gaps T790M/C797S/del 1-694/del 746-750 limits assumed): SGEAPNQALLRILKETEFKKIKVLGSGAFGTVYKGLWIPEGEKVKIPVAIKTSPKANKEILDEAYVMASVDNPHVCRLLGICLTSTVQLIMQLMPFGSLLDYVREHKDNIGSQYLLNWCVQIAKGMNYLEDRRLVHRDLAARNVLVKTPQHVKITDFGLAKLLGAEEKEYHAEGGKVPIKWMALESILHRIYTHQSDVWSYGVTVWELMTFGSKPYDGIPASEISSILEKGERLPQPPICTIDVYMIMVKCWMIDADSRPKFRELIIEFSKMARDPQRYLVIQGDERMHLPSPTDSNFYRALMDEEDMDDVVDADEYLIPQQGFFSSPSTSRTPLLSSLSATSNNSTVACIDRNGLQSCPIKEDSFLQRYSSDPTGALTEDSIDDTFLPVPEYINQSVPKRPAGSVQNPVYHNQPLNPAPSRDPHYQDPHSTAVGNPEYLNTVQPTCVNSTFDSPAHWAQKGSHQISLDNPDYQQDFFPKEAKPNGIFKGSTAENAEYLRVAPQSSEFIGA
Sequence of EGFR (d746-750 (d19)/T790M) (P00533 other isoform, or with tags, fused parts or gaps T790M/del 1-668/del 746-750 limits assumed): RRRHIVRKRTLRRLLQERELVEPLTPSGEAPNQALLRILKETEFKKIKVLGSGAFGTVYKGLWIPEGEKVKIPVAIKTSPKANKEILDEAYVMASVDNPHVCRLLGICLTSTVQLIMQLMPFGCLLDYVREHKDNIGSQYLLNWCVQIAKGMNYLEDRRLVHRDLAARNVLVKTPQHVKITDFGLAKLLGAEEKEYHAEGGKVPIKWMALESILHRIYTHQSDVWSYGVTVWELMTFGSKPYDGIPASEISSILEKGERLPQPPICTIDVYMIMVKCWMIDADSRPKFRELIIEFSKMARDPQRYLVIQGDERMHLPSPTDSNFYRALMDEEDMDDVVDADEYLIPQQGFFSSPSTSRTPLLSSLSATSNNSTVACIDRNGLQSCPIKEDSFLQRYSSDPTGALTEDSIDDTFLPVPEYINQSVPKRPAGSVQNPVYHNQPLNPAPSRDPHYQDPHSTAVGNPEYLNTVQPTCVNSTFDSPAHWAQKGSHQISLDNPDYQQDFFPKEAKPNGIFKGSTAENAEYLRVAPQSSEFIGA

SMILES	IC50 [1]	IC50 [2]	IC50 [3]	IC50 [6]	IC50 [7]	Stability in liver microsomes (residual %, T = 60 min) [8]	other results
Cc1cc2cc(n1)-c1cnn(C)c1OCCC[C@@H](C1CC1)CN1/C(=N/C2=O)Nc2ccc(N[C@@H](C)CN(C)C)cc21 [Example 66]	< 5 nM	< 1 nM	< 50 nM	–	–	–	AUC(0-inf) [4]: 2200 ng·h/mL; AUC(0-t) ([4]; read-out: AUC(0-t)): 2040 ng·h/mL; Cmax ([4]; read-out: Cmax): 143 ng/mL; MRT last ([4]; read-out: MRT(0-t)): 8.26 h; Tmax ([4]; read-out: Tmax): 6 h; half-life ([4]; read-out: T½ (converted)): 5.98 h; Tumor growth inhibition % (tumor weight, d 14) (NCI-H1975(L858R T790M); 5 mpk (i.g)): 73.5% (tumor; Tumor growth inhibition % (volume, d 12) (NCI-H1975(L858R T790M); 5 mpk (i.g)): 71.3%; Tumor growth inhibition % (tumor weight, d 14) (NCI-H1975(L858R T790M); 10 mpk (i.g)): 87.5% (tumor; Tumor growth inhibition % (volume, d 12) (NCI-H1975(L858R T790M); 10 mpk (i.g)): 86.2%; Tumor growth inhibition % (tumor weight, d 29) [5, 9]: 95.8% (tumor weight, d 29); Tumor growth inhibition % (volume, d 27) [5, 9]: 94.3% (volume, d 27); Tumor growth inhibition % (tumor weight, d 29) ([5]; 30 mpk*4 (i.g), 4 days): 56.5%; Tumor growth inhibition % (volume, d 27) ([5]; 30 mpk*4 (i.g), 4 days): 60.0% (volume, d 27)
Cc1cc2cc(n1)-c1cnn(C)c1OCCC[C@@H](C1CC1)CN1/C(=N/C2=O)Nc2cc(NC3CCN(C(C)C)CC3)ccc21 [Example 47]	< 5 nM	< 1 nM	< 50 nM	0.017 nM	0.027 nM	96.11%	–
Cc1cc2cc(n1)-c1cnn(C)c1OCCC[C@@H](C1CC1)CN1/C(=N/C2=O)Nc2ccc(N[C@H]3CC[C@@H](N(C)C)CC3)cc21 [Example 99]	< 5 nM	–	< 50 nM	0.091 nM	–	84.54%	–
Cc1cc2cc(n1)-c1cnn(C)c1OCCC[C@@H](C1CC1)CN1/C(=N/C2=O)Nc2ccc(N(C)CCN(C)C)cc21 [Example 45]	< 5 nM	< 1 nM	< 50 nM	0.013 nM	0.018 nM	–	Tumor growth inhibition % (tumor weight, d 14) (NCI-H1975(L858R T790M); 10 mpk (i.g)): 76.2% (tumor; Tumor growth inhibition % (volume, d 12) (NCI-H1975(L858R T790M); 10 mpk (i.g)): 76.6%
Cc1cc2cc(n1)-c1cnn(C)c1OCCC[C@@H](C1CC1)CN1/C(=N/C2=O)Nc2ccc(N[C@H]3CC[C@H](N(C)C)CC3)cc21 [Example 100]	< 5 nM	–	< 50 nM	0.092 nM	–	82.55%	–
Cc1cc2cc(n1)-c1cnn(C)c1OCCC[C@@H](C1CC1)CN1/C(=N/C2=O)Nc2cc(N[C@H]3C[C@H](N(C)C)C3)ccc21 [Example 126]	< 5 nM	–	< 50 nM	–	0.073 nM	83.66%	–
Cc1cc2cc(n1)-c1cnn(C)c1OCCC[C@@H](C1CC1)CN1/C(=N/C2=O)Nc2cc(NC3CCN(C)CC3)ccc21 [Example 10]	< 5 nM	–	< 50 nM	0.014 nM	0.023 nM	94.30%	–
Cc1cc2cc(n1)-c1cnn(C)c1OCCC[C@@H](C1CC1)CN1/C(=N/C2=O)Nc2cc(NCCCN(C)C)ccc21 [Example 44]	< 5 nM	< 1 nM	< 50 nM	0.0081 nM	0.012 nM	80.24%	–
Cc1cc2cc(n1)-c1cnn(C)c1OCCC[C@@H](C1CC1)CN1/C(=N/C2=O)Nc2ccc(NC(=O)CCN(C)C)cc21 [Example 112]	< 5 nM	–	< 50 nM	–	0.063 nM	71.24%	–
Cc1cc2cc(n1)-c1cnn(C)c1OCCC[C@@H](C1CC1)CN1/C(=N/C2=O)Nc2cc(NCCN3CCCC3)ccc21 [Example 72]	< 5 nM	< 1 nM	–	0.011 nM	0.013 nM	64.73%	–
CCN1CCC(Nc2ccc3c(c2)N/C2=N\C(=O)c4cc(C)nc(c4)-c4cnn(C)c4OCCC[C@@H](C4CC4)CN23)CC1 [Example 48]	< 5 nM	< 1 nM	< 50 nM	0.017 nM	0.027 nM	95.68%	–
Cc1cc2cc(n1)-c1cnn(C)c1OCCC[C@@H](C1CC1)CN1/C(=N/C2=O)Nc2cc(N[C@H]3CC[C@H](N(C)C)C3)ccc21 [Example 135]	< 5 nM	–	< 50 nM	–	0.062 nM	97.30%.	–
